In article PMC10707071, “Characterization of the Novel Leaderless Bacteriocin, Bawcin, from Bacillus wiedmannii” (International Journal of Molecular Sciences, 2023):
No end group written: not given here.

Key:
papain = target: T1, papain (Carica papaya, UniProt P00784); assay: Protease sensitivity testing (residual activity by spot-on-lawn assay); type: in vitro ADME; details: spot-on-lawn against M. luteus, triplicate
T1 construct: purchased Scholar Chemistry
Method: (§1) The MIC of bawcin against each bacterial strain was determined using the spot-on-lawn assay as described previously with modifications. A Mueller Hinton (MH) double-agar plate was prepared by pouring 5 mL of 0.75% MH agar inoculated with 50 µL of 0.10 OD625 bacterial suspension onto 20 mL of dried 1.5% MH agar. Bawcin diluted with sterile water to 128, 64, 32, 16, 8, 4, 2, and 1 µM was spotted in 10 µL aliquots onto the top agar layer, along with 10 µL of an antibiotic positive control (ampicillin or kanamycin) and sterile water negative control. Plates were incubated at 37 °C for 16–20 h and the MIC was identified as the lowest concentration in which a zone of inhibition was observed, where partial bacterial growth within the zone of inhibition was considered HR. Assays were performed in triplicate.
(§2) Protease stability testing was evaluated as described previously with modification. Papain (Scholar Chemistry, Rochester, NY, USA), pepsin (Northwest Scientific, Billings, MT, USA), trypsin (Sigma-Aldrich, Burlington, MA, USA), alpha-chymotrypsin (Worthington, Lakewood, NJ, USA), and proteinase K (Fisher Scientific, Ottawa, ON, Canada) were prepared to a final concentration of 1 mg/mL in 50 mM phosphate buffer adjusted to pH 2 (pepsin), 6 (papain), and 8 (proteinase K, trypsin, alpha-chymotrypsin). Bawcin was combined with each protease to final concentrations of 1×, 2×, and 4× the MIC. Bawcin’s residual antimicrobial activity against M. luteus was determined via spot-on-lawn assay as described above. The following samples were spotted for each assay: (1) protease combined with bawcin at each concentration, bawcin alone at each concentration, buffer alone, protease in buffer alone, ampicillin (positive control), and sterile water (negative control), where all solutions were incubated for 1 h at 37 °C prior to spotting except ampicillin and sterile water. Assays were performed in triplicate.

pepsin = target: T2, pepsin (Sus scrofa, UniProt P00791); assay: as above; type: in vitro ADME; details: 1 mg/mL pepsin in 50 mM phosphate buffer pH 2, 1 h at 37 °C, bawcin at 1×, 4× the MIC (8, 16, 32 µM), spot-on-lawn against M. luteus, triplicate
T2 construct: purchased Northwest Scientific
Method: as §1, §2

alpha-chymotrypsin = target: T3, alpha-chymotrypsin (Bos taurus, UniProt P00766); assay: as above; type: in vitro ADME; details: 1 mg/mL alpha-chymotrypsin in 50 mM phosphate buffer pH 8, 1 h at 37 °C, bawcin at 1×, 2×, 4× the MIC, spot-on-lawn against M. luteus, triplicate
T3 construct: purchased Worthington
Method: as §1, §2

trypsin = assay: as above; type: in vitro ADME; details: 1 mg/mL trypsin in 50 mM phosphate buffer pH 8, 1 h at 37 °C, bawcin at 1×, 2×, 4× the MIC, spot-on-lawn against M. luteus, triplicate
Method: as §1, §2

proteinase K = target: T4, proteinase K (Parengyodontium album, UniProt P06873); assay: as above; type: in vitro ADME; details: 1 mg/mL proteinase K in 50 mM phosphate buffer pH 8, 1 h at 37 °C, bawcin at 1×, 2×, 4× the MIC, spot-on-lawn against M. luteus, triplicate
T4 construct: purchased Fisher Scientific
Method: as §1, §2

[1] = tested on: Listeria monocytogenes ATCC 19115; type: cell-based
Method: as §1

[2] = tested on: Bacillus cereus (Ward’s 85W 0200); type: cell-based
Method: as §1

[3] = tested on: Lactobacillus casei (Ward’s 85W 1682); type: cell-based
Method: as §1

[4] = tested on: Lactococcus lactis ssp. lactis (Ward’s 85W 1774); type: cell-based
Method: as §1

[5] = tested on: Bacillus subtilis (Ward’s 85W 1650); type: cell-based
Method: as §1

[6] = tested on: Micrococcus luteus (Ward’s 85W 0966); type: cell-based
Method: as §1

[7] = tested on: Lactobacillus delbruekii ssp. bulgaricus (VWR 470179-126); type: cell-based
Method: as §1

[8] = tested on: Staphylococcus aureus ATCC 6538; type: cell-based
Method: as §1

[9] = tested on: Enterococcus faecalis (Ward’s 85W 1100); type: cell-based
Method: as §1

T1 sequence (P00784 134-345): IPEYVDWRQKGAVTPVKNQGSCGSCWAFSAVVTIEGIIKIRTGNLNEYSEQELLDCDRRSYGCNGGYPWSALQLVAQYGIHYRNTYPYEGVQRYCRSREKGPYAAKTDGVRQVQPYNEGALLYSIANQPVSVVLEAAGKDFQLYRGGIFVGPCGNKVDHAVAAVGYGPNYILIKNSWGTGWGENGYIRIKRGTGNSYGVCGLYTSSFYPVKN
T4 sequence (P06873 106-384): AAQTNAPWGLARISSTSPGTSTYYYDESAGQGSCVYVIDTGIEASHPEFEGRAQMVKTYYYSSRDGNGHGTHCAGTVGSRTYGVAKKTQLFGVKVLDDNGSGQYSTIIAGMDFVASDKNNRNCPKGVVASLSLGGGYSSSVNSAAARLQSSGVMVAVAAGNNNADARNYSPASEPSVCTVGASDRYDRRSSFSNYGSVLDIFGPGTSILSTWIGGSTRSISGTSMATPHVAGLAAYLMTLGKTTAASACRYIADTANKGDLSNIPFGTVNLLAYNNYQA
T2 sequence (P00791 60-385): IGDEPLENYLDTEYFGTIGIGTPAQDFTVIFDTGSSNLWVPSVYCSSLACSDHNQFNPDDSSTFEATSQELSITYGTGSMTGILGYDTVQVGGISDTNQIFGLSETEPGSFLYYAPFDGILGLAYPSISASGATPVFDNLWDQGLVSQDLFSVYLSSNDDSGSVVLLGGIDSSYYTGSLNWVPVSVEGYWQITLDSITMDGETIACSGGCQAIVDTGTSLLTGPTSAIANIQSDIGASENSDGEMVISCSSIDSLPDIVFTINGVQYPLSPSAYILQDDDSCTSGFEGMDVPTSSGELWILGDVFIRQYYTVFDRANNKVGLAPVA

Question: Which results are given for “MLSFAKLVARLSASKAKWAWNNKGKVVEWIKNGATFEWISNKIDQMMG [bawcin]”?
Answer: Residual antimicrobial activity when combined with papain (papain; 1 mg/mL papain in 50 mM phosphate buffer pH 6, 1 h at 37 °C, bawcin at 1×, 2×, 4× the MIC (8, 16, 32 µM)): retained its antimicrobial activity; Lowest bawcin concentration remaining active in combination with papain (papain; 1 mg/mL papain, pH 6, 1 h at 37 °C, 32, 16, 8 µM tested): 8 µM; Residual antimicrobial activity when combined with pepsin (pepsin): only at 4× the MIC (with HR); Residual antimicrobial activity in the presence of alpha-chymotrypsin (alpha-chymotrypsin): lost antimicrobial activity at all concentrations tested; Residual antimicrobial activity in the presence of trypsin (trypsin): lost antimicrobial activity at all concentrations tested; Residual antimicrobial activity in the presence of proteinase K (proteinase K): lost antimicrobial activity at all concentrations tested; MIC [1]: 8 µM; MIC [2]: 16 µM; MIC [3]: 8 µM; MIC [4]: 4 µM; MIC [5]: 8 µM; MIC [6]: 4 µM; MIC [7]: 8 µM; MIC [8]: 16 µM; MIC [9]: 32 µM
